Structures can show the parent of a compound that is named as a salt. Where two headings read alike, the source gives them in different places.
Biological target: AaDOP2 (Aedes aegypti, UniProt H6D5H2)
Assay: AaDOP2 antagonist screen of the LOPAC1280 library (HEK-CRELuc-Aadop2 cells, luminescence)
Assay type: cell-based
[1] = 10 µM compound, 300 nM dopamine, 2 hr, hit = compound effect <20

Chain of AaDOP2 (H6D5H2 1-476): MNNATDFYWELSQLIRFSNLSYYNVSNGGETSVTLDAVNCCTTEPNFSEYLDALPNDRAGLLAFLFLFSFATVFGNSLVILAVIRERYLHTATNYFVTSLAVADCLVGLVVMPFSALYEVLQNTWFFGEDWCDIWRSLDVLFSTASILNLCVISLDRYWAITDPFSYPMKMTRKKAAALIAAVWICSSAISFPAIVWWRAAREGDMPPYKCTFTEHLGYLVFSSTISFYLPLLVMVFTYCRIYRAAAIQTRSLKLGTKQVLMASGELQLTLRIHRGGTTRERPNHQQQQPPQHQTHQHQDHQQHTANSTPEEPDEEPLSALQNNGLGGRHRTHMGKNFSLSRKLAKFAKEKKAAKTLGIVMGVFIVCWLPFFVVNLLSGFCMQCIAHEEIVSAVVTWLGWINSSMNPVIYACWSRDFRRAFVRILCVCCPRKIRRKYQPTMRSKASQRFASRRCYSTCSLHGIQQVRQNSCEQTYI

Nc1ncnc2c1ncn2[C@@H]1O[C@H](CO)[C@@H](O)[C@H]1O [Compound 101, Adenosine]
Compound effect (percent receptor signaling in presence of test compound, relative lux units relative to the SCH23390 control): 96

N[C@@H](CC(=O)O)C(=O)O [Compound 102, L-Aspartic acid]
Compound effect (percent receptor signaling in presence of test compound, relative lux units relative to the SCH23390 control): 106

CC1=C(/C=C/C(C)=C/C=C/C(C)=C/C=C/C=C(C)/C=C/C=C(C)/C=C/C2=C(C)C(=O)[C@@H](O)CC2(C)C)C(C)(C)C[C@H](O)C1=O [Compound 103, Astaxanthin]
Compound effect (percent receptor signaling in presence of test compound, relative lux units relative to the SCH23390 control): 106

Nc1ccc(N2C(=O)c3ccccc3C2=O)c(Cl)c1 [Compound 104, N-(4-Amino-2-chlorophenyl)phthalimide]
Compound effect (percent receptor signaling in presence of test compound, relative lux units relative to the SCH23390 control): 99

NC(N)=NC(=O)c1nc(Cl)c(N2CCCCCC2)nc1N [Compound 107, 5-(N,N-hexamethylene)amiloride]
Compound effect (percent receptor signaling in presence of test compound, relative lux units relative to the SCH23390 control) [1]: 82%

C[C@]12CCC(=O)C=C1CC[C@@H]1[C@@H]2CC[C@]2(C)C(=O)CC[C@@H]12 [Compound 108, 4-Androstene-3,17-dione]
Compound effect (percent receptor signaling in presence of test compound, relative lux units relative to the SCH23390 control): 115

COc1cc(NS(C)(=O)=O)ccc1Nc1c2ccccc2nc2ccccc12 [Compound 112, Amsacrine hydrochloride]
Compound effect (percent receptor signaling in presence of test compound, relative lux units relative to the SCH23390 control): 97

CN(Cc1cnc2nc(N)nc(N)c2n1)c1ccc(C(=O)N[C@@H](CCC(=O)O)C(=O)O)cc1 [Compound 114, (-)Amethopterin]
Compound effect (percent receptor signaling in presence of test compound, relative lux units relative to the SCH23390 control): 116

Cl.c1ccc(CN(CC2=NCCN2)c2ccccc2)cc1 [Compound 115, Antozoline hydrochloride]
Compound effect (percent receptor signaling in presence of test compound, relative lux units relative to the SCH23390 control) [1]: 115%

COc1ccc(C(=O)N2CCCC2=O)cc1 [Compound 116, Aniracetam]
Compound effect (percent receptor signaling in presence of test compound, relative lux units relative to the SCH23390 control): 101

CCn1c(=O)c2[nH]c(-c3ccccc3)nc2n(CC)c1=O [Compound 117, 1,3-Diethyl-8-phenylxanthine]
Compound effect (percent receptor signaling in presence of test compound, relative lux units relative to the SCH23390 control): 105

Cn1c(=O)c2[nH]c(-c3ccc(S(=O)(=O)O)cc3)nc2n(C)c1=O [Compound 118, 8-(p-Sulfophenyl)theophylline]
Compound effect (percent receptor signaling in presence of test compound, relative lux units relative to the SCH23390 control): 98

CCCn1c(=O)c2[nH]c(-c3ccc(S(=O)(=O)O)cc3)nc2n(CCC)c1=O [Compound 119, 1,3-Dipropyl-8-p-sulfophenylxanthine]
Compound effect (percent receptor signaling in presence of test compound, relative lux units relative to the SCH23390 control): 91

CNC(=O)[C@H]1O[C@@H](n2cnc3c(N)ncnc32)[C@H](O)[C@@H]1O [Compound 121, 5'-N-Methyl carboxamidoadenosine]
Compound effect (percent receptor signaling in presence of test compound, relative lux units relative to the SCH23390 control) [1]: 114%

NCCNC(=O)Cc1ccc(NC(=O)Cc2ccc(Nc3ncnc4c3ncn4[C@@H]3O[C@H](CO)[C@@H](O)[C@H]3O)cc2)cc1 [Compound 122, Adenosine amine congener]
Compound effect (percent receptor signaling in presence of test compound, relative lux units relative to the SCH23390 control): 105

CN1[C@@H]2CC[C@H]1C[C@@H](OC(c1ccccc1)c1ccccc1N)C2 (some centres unmarked) [Compound 125, Aminobenztropine]
Compound effect (percent receptor signaling in presence of test compound, relative lux units relative to the SCH23390 control): 30

C#CCOC(=O)C1=CCCN(C)C1 [Compound 126, Arecaidine propargyl ester hydrobromide]
Compound effect (percent receptor signaling in presence of test compound, relative lux units relative to the SCH23390 control): 85

C=CCn1c(=O)c2c(nc(-c3ccc(S(=O)(=O)O)cc3)n2C)n(C)c1=O [Compound 129, 1-Allyl-3,7-dimethyl-8-p-sulfophenylxanthine]
Compound effect (percent receptor signaling in presence of test compound, relative lux units relative to the SCH23390 control): 100

Cl.NC1(C(=O)O)CCCCC1 [Compound 132, 1-Amino-1-cyclohexanecarboxylic acid hydrochloride]
Compound effect (percent receptor signaling in presence of test compound, relative lux units relative to the SCH23390 control): 110

CC(N)C(=O)OC(C)(C)Cc1ccc(Cl)cc1 (centres unmarked) [Compound 133, Alaproclate hydrochloride]
Compound effect (percent receptor signaling in presence of test compound, relative lux units relative to the SCH23390 control): 110

CCN(CC)CC.Nc1ncnc2c1ncn2C1OC2COP(O)(=S)O[C@@H]2[C@@H]1O (some centres unmarked) [Compound 134, Rp-cAMPS triethylamine]
Compound effect (percent receptor signaling in presence of test compound, relative lux units relative to the SCH23390 control): 67

Cl.Cn1ccc2cc(NC(=O)Nc3cccnc3)ccc21 [Compound 135, SB 200646 hydrochloride]
Compound effect (percent receptor signaling in presence of test compound, relative lux units relative to the SCH23390 control) [1]: 106%

N[C@H](CCCCCP(=O)(O)O)C(=O)O [Compound 136, D(-)-2-Amino-7-phosphonoheptanoic acid]
Compound effect (percent receptor signaling in presence of test compound, relative lux units relative to the SCH23390 control): 102

CC(=O)c1ccc(S(=O)(=O)NC(=O)NC2CCCCC2)cc1 [Compound 137, Acetohexamide]
Compound effect (percent receptor signaling in presence of test compound, relative lux units relative to the SCH23390 control): 115

CP(=O)(O)CCCN.Cl [Compound 138, SKF 97541 hydrochloride]
Compound effect (percent receptor signaling in presence of test compound, relative lux units relative to the SCH23390 control): 101

NC/C=C\C(=O)O [Compound 139, cis-4-Aminocrotonic acid]
Compound effect (percent receptor signaling in presence of test compound, relative lux units relative to the SCH23390 control): 95

Nc1ccc(CCNc2ncnc3c2ncn3[C@@H]2O[C@H](CO)[C@@H](O)[C@H]2O)cc1 [Compound 140, N6-2-(4-Aminophenyl)ethyladenosine]
Compound effect (percent receptor signaling in presence of test compound, relative lux units relative to the SCH23390 control): 97

CC1=C[C@@H]2c3cccc4[nH]cc(c34)C[C@H]2N(C)C1 [Compound 141, Agroclavine]
Compound effect (percent receptor signaling in presence of test compound, relative lux units relative to the SCH23390 control): 98

C#CC(N)CCC(=O)O (centres unmarked) [Compound 142, gamma-Acetylinic GABA]
Compound effect (percent receptor signaling in presence of test compound, relative lux units relative to the SCH23390 control) [1]: 104%

CNC(=O)[C@H]1O[C@@H](n2cnc3c(NCc4ccc(N)cc4)ncnc32)[C@H](O)[C@@H]1O [Compound 143, AB-MECA]
Compound effect (percent receptor signaling in presence of test compound, relative lux units relative to the SCH23390 control) [1]: 100%

O=c1nc2[nH]c3ccccc3nc-2c(=O)[nH]1 [Compound 144, Alloxazine]
Compound effect (percent receptor signaling in presence of test compound, relative lux units relative to the SCH23390 control): 104

O=C(O)[C@@H]1C[C@H](C(=O)O)N1 [Compound 145, cis-Azetidine-2,4-dicarboxylic acid]
Compound effect (percent receptor signaling in presence of test compound, relative lux units relative to the SCH23390 control): 112

CC(C)C1C2CCC(C2)C1N.Cl (centres unmarked) [Compound 147, AGN 192403 hydrochloride]
Compound effect (percent receptor signaling in presence of test compound, relative lux units relative to the SCH23390 control) [1]: 109%

NC1(C(=O)O)CCc2cc(C(=O)O)ccc21 (centres unmarked) [Compound 148, AIDA]
Compound effect (percent receptor signaling in presence of test compound, relative lux units relative to the SCH23390 control): 95

Cl.NC[C@@H]1O[C@H](C23CC4CC(CC(C4)C2)C3)Cc2c1ccc(O)c2O [Compound 149, A-77636 hydrochloride]
Compound effect (percent receptor signaling in presence of test compound, relative lux units relative to the SCH23390 control) [1]: 113%

CC(C)(C)c1o[nH]c(=O)c1CC(N)C(=O)O (centres unmarked) [Compound 150, ATPA]
Compound effect (percent receptor signaling in presence of test compound, relative lux units relative to the SCH23390 control): 101

CCN(CC)c1ncnc2c1ncn2[C@@H]1O[C@H](COP(=O)([O-])OP(=O)([O-])C(Br)(Br)P(=O)([O-])O)[C@@H](O)[C@H]1O.[Na+].[Na+].[Na+] [Compound 151, ARL 67156 trisodium salt]
Compound effect (percent receptor signaling in presence of test compound, relative lux units relative to the SCH23390 control) [1]: 115%

C[C@H]1C[C@H]2[C@@H]3CCC4=CC(=O)C=C[C@]4(C)[C@@]3(Cl)[C@@H](O)C[C@]2(C)[C@@]1(O)C(=O)CO [Compound 152, Beclomethasone]
Compound effect (percent receptor signaling in presence of test compound, relative lux units relative to the SCH23390 control) [1]: 97%

CC(=O)C(C)=NO [Compound 153, 2,3-Butanedione monoxime]
Compound effect (percent receptor signaling in presence of test compound, relative lux units relative to the SCH23390 control): 131

CC[C@H](NC(=O)c1c(C)c(-c2ccccc2)nc2ccccc12)c1ccccc1 [Compound 154, SB 222200]
Compound effect (percent receptor signaling in presence of test compound, relative lux units relative to the SCH23390 control): 92

COc1ccc2c(c1)c(CC(=O)O)c(C)n2C(=O)c1ccccc1 [Compound 155, 1-benzoyl-5-methoxy-2-methylindole-3-acetic acid]
Compound effect (percent receptor signaling in presence of test compound, relative lux units relative to the SCH23390 control): 105

O=C1C=CC(=O)C=C1 [Compound 156, p-Benzoquinone]
Compound effect (percent receptor signaling in presence of test compound, relative lux units relative to the SCH23390 control): 96

Nc1nc2c(nc(Br)n2[C@@H]2O[C@@H]3COP(=O)([O-])O[C@H]3[C@H]2O)c(=O)[nH]1.[Na+] [Compound 157, 8-Bromo-cGMP sodium]
Compound effect (percent receptor signaling in presence of test compound, relative lux units relative to the SCH23390 control) [1]: 117%

O=S(=O)(NCCNC/C=C/c1ccc(Br)cc1)c1cccc2cnccc12 [Compound 158, H-89]
Compound effect (percent receptor signaling in presence of test compound, relative lux units relative to the SCH23390 control): 46

O=C1O/C(=C/Br)CCC1c1cccc2ccccc12 (centres unmarked) [Compound 159, Bromoenol lactone]
Compound effect (percent receptor signaling in presence of test compound, relative lux units relative to the SCH23390 control): 103

NC(=O)c1ccccc1 [Compound 160, Benzamide]
Compound effect (percent receptor signaling in presence of test compound, relative lux units relative to the SCH23390 control): 100

O=[N+]([O-])c1cccc2c(Br)n[nH]c12 [Compound 161, 3-Bromo-7-nitroindazole]
Compound effect (percent receptor signaling in presence of test compound, relative lux units relative to the SCH23390 control): 83

CC(C)C[C@H]1C(=O)N2CCC[C@H]2[C@]2(O)O[C@](NC(=O)[C@@H]3C=C4c5cccc6[nH]c(Br)c(c56)C[C@H]4N(C)C3)(C(C)C)C(=O)N12.CS(=O)(=O)O [Compound 162, (+)-Bromocriptine methanesulfonate]
Compound effect (percent receptor signaling in presence of test compound, relative lux units relative to the SCH23390 control): 37

Nc1nc(OCc2ccccc2)c2nc[nH]c2n1 [Compound 163, O6-benzylguanine]
Compound effect (percent receptor signaling in presence of test compound, relative lux units relative to the SCH23390 control): 80

CC(=O)NBr [Compound 164, N-Bromoacetamide]
Compound effect (percent receptor signaling in presence of test compound, relative lux units relative to the SCH23390 control) [1]: 104%

Reference: paper PMC3265452 (PLoS Neglected Tropical Diseases, 2012)
